In brackets after ≈: the same amount, converted by molar mass. Like-named read-outs stand apart in the source and are kept apart here.

Usually melting point stands for the temperature of the solid-liquid transition.

The subject of series [1] is clinical isolates of a typical acid-fast mycobacteria. Briefly: microbe, parasite or virus in culture. Type of series: cell-based, Mycobacterium. The settings on record: 7H11 agar, 37° C., 7 days; for MIC: 168 h. Here is the method: (§1) In order to evaluate excellent efficacy of the compounds of the present invention, their antibacterial spectrums against a typical acid-fast mycobacteria were measured. Clarithromycin, rifampicin and 4″-O-acetylerythromycin A 9-(O-methyloxime) [a compound disclosed in the Japanese Patent Unexamined Publication (KOKAI) No.63-107921/1988] were used as reference compounds. Ac in the formula represents acetyl group. [drawing 1313]
(§2) Antibacterial Activity Against a Typical Acid-Fast Mycobacteria
(§3) Antibacterial activities (minimum inhibitory concentrations) against clinical isolates of a typical acid-fast mycobacteria were measured by the agar dilution method according to the standard method of the Japan Society of Chemotherapy. About 5 μl of bacterial suspension (adjusted to […]) were spotted on the 7H11 agar plates containing the test compounds. The minimum inhibitory concentrations were determined by the growth or no growth of the bacteria after incubation at 37° C. for 7 days. The abbreviation M in the table represents Mycobacterium. The compounds of the present invention had more excellent antibacterial activity than the reference compounds against a typical acid-fast mycobacteria including clarithromycin-resistant strains (M.avium 20092 and other bacteria).

The next series concerns M.avium 20092. Briefly: Antibacterial activity (minimum inhibitory concentration), agar dilution method, clarithromycin-resistant strain. It is filed as cell-based, Mycobacterium avium. The settings on record: M. avium 20092 (clarithromycin-resistant), 7H11 agar, 37° C., 7 days; for MIC: Mycobacterium avium, 168 h. As for the experimental part: as §1, §2, §3
(In general: In agar dilution the substance is mixed into plates at graded concentrations.)

Where [2] appears, read: Mycobacterium avium, read-out: Minimum inhibitory concentration, M. avium 20034.
Where [3] appears, read: Mycobacterium avium, read-out: Minimum inhibitory concentration, M. avium 20045.
[4] abbreviates: Mycobacterium avium, read-out: Minimum inhibitory concentration, M. avium 20096.
Where [5] appears, read: Mycobacterium intracellulare, read-out: Minimum inhibitory concentration, M. intracellulare 20066.
Setting [6] is: Mycobacterium intracellulare, read-out: Minimum inhibitory concentration, M. intracellulare 20067.
Setting [7] is: Mycobacterium intracellulare, read-out: Minimum inhibitory concentration, M. intracellulare 20073.
Setting [8] is: Mycobacterium intracellulare, read-out: Minimum inhibitory concentration, M. intracellulare 20075.

On to “4″-O-Acetyl-2′-O-benzylaminocarbonylerythromycin A 9-[O-(3-cyclo-hexylpropyl)oxime] [Example 40]”, for which the Minimum inhibitory concentration was found to be 0.39 µg/mL in series [1] (M. avium 20034); 0.78 µg/mL in series [1] (M. avium 20045); 0.78 µg/mL in series [1] (M. avium 20096); 0.20 µg/mL in series [1] (M. intracellulare 20066); 0.78 µg/mL in series [1] (M. intracellulare 20067); 0.78 µg/mL in series [1] (M. intracellulare 20073). The Minimum inhibitory concentration (in series [1] (M. intracellulare 20075); with M.avium 20092) was 0.78 µg/mL throughout.
Take `CC[C@H]1OC(=O)[C@H](C)[C@@H](O[C@H]2C[C@@](C)(OC)[C@@H](O)[C@H](C)O2)C[C@@H](O[C@@H]2O[C@H](C)C[C@H](N(C)C)[C@H]2OC(=O)NCc2ccccc2)C(C)(O)C[C@@H](C)C(=NOCCCOc2ccccc2)[C@H](C)[C@@H](O)[C@]1(C)O` (some centres unmarked) [Example 34]: the melting point lay within 107 to 110 °C.
With `CCCCCCCCON=C1[C@H](C)CC(C)(O)[C@H](O[C@@H]2O[C@H](C)C[C@H](N(C)C)[C@H]2OC(=O)NCc2ccccc2)C[C@H](O[C@H]2C[C@@](C)(OC)[C@@H](OC(C)=O)[C@H](C)O2)[C@@H](C)C(=O)O[C@H](CC)[C@@](C)(O)[C@H](O)[C@H]1C` (some centres unmarked) [Example 94], the MIC in series [1] (setting [2]) is 0.39 µg/mL (≈ 0.381 µM); in series [1] (setting [3]) it was 0.78 µg/mL (≈ 0.763 µM); in series [1] (setting [4]), 0.39 µg/mL (≈ 0.381 µM); in series [1] (setting [5]), 0.39 µg/mL (≈ 0.381 µM); in series [1] (setting [6]), 0.39 µg/mL (≈ 0.381 µM); in series [1] (setting [7]), 0.39 µg/mL (≈ 0.381 µM). Moreover, the MIC (in series [1] (setting [8]); with M.avium 20092) was 0.39 µg/mL (≈ 0.381 µM) throughout.
In the case of `CC[C@H]1OC(=O)[C@H](C)[C@@H](O[C@H]2C[C@@](C)(OC)[C@@H](O)[C@H](C)O2)[C@H](C)[C@@H](O[C@@H]2O[C@H](C)C[C@H](N(C)C)[C@H]2O)[C@](C)(OC)C[C@@H](C)C(=O)[C@H](C)[C@@H](O)[C@]1(C)O` [compound 1, Clarithromycin], the MIC in series [1] (setting [2]) is 3.13 µg/mL (≈ 4.18 µM); in series [1] (setting [3]), 1.56 µg/mL (≈ 2.09 µM); in series [1] (setting [4]), above 50 µg/mL; in series [1] (setting [5]) it was 3.13 µg/mL (≈ 4.18 µM); in series [1] (setting [6]) it was 1.56 µg/mL (≈ 2.09 µM); in series [1] (setting [7]), 1.56 µg/mL (≈ 2.09 µM). Further, the values for the MIC (in series [1] (setting [8]); in the series with M.avium 20092) were 3.13 µg/mL (≈ 4.18 µM) and above 50 µg/mL, respectively.
`CO[C@H]1/C=C/O[C@@]2(C)Oc3c(C)c(O)c4c(O)c(c(/C=N/N5CCN(C)CC5)c(O)c4c3C2=O)NC(=O)/C(C)=C\C=C\[C@H](C)[C@H](O)[C@@H](C)[C@@H](O)[C@@H](C)[C@H](OC(C)=O)[C@@H]1C` [compound 2, rifampicin]: the MIC in series [1] (setting [2]) was 12.5 µg/mL (≈ 15.2 µM); in series [1] (setting [3]), 3.13 µg/mL (≈ 3.8 µM); in series [1] (setting [4]), 3.13 µg/mL (≈ 3.8 µM); in series [1] (setting [5]), 3.13 µg/mL (≈ 3.8 µM); in series [1] (setting [6]), 1.56 µg/mL (≈ 1.9 µM); in series [1] (setting [7]), 3.13 µg/mL (≈ 3.8 µM). Besides, the MIC came to 3.13 µg/mL (≈ 3.8 µM) in series [1] (setting [8]) and 50 µg/mL (≈ 60.8 µM) against M.avium 20092.
Consider `CC[C@H]1OC(=O)[C@H](C)[C@@H](O[C@H]2C[C@@](C)(OC)[C@@H](OC(C)=O)[C@H](C)O2)[C@H](C)[C@@H](O[C@@H]2O[C@H](C)C[C@H](N(C)C)[C@H]2O)[C@](C)(O)C[C@@H](C)C(=NOC)[C@H](C)[C@@H](O)[C@]1(C)O` [compound 3, 4″-O-acetylerythromycin A 9-(O-methyloxime)], for which the Minimum inhibitory concentration in series [1] (M. avium 20034) is above 50 µg/mL; in series [1] (M. avium 20045), 12.5 µg/mL (≈ 15.5 µM); in series [1] (M. avium 20096), above 50 µg/mL; in series [1] (M. intracellulare 20066), 12.5 µg/mL (≈ 15.5 µM); in series [1] (M. intracellulare 20067) it was 6.25 µg/mL (≈ 7.76 µM); in series [1] (M. intracellulare 20073), 12.5 µg/mL (≈ 15.5 µM). Further, the Minimum inhibitory concentration is 12.5 µg/mL (≈ 15.5 µM) in series [1] (M. intracellulare 20075) and above 50 µg/mL in the series on M.avium 20092.
